Consider two molecules from article PMC4066849 (Structure (London, England : 1993), 2014).

Usually Kd stands for the concentration at which binding is half-saturated. A high value points to weaker binding.

The structures appear in SMILES notation.

Experiment [1] addresses Drp1 (Mus musculus, UniProt Q8K1M6). Nature of the experiment: GTP hydrolysis by purified Drp1. Format: biochemical.
In experiment [2] the target is MiD51 (Mus musculus, UniProt Q8BGV8). Nature of the experiment: fluorescence anisotropy equilibrium titration. It counts as binding. In general terms: Fluorescence polarisation rises when a labelled molecule tumbles more slowly, as on binding a larger partner.
Sequence of MiD51 (Q8BGV8 134-463): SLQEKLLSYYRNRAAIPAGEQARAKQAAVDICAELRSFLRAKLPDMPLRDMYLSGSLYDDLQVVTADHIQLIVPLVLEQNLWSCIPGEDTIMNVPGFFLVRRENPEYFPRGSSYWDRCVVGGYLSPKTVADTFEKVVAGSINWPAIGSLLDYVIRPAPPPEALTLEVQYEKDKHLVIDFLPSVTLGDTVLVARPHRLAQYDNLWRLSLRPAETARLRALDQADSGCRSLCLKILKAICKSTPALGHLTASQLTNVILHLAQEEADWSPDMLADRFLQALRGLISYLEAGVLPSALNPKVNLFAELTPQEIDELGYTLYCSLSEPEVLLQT

Sequence of Drp1 (Q8K1M6 whole entry): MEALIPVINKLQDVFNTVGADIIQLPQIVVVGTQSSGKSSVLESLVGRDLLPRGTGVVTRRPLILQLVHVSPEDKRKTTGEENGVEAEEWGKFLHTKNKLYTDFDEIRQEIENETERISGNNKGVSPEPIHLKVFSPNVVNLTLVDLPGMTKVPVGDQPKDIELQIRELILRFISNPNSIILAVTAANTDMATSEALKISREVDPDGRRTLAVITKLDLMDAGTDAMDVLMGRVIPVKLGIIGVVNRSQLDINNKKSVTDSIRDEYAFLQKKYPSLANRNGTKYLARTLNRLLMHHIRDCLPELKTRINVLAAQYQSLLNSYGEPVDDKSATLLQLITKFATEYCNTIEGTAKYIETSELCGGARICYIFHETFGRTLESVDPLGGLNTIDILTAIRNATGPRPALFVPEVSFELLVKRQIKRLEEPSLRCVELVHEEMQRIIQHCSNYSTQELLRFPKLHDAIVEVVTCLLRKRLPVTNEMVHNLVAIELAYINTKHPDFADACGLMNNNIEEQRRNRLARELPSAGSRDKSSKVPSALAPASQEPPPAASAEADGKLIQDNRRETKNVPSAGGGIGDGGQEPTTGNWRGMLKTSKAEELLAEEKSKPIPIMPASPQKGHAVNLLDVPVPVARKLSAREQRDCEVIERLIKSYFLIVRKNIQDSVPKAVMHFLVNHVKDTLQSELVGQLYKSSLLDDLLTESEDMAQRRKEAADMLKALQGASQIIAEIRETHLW

Consider `Nc1nc2c(ncn2[C@@H]2O[C@H](COP(=O)(O)OP(=O)(O)OP(=O)(O)O)[C@@H](O)[C@H]2O)c(=O)[nH]1` [GTP], for which the “GTP hydrolysis by purified Drp1 ([γ-32P]-GTP, thin-layer chromatography); abolis” value in experiment [1] is listed as ~ 1.5 molecules of GTP per minute.

As for `CNc1ccccc1C(=O)O[C@H]1[C@@H](O)[C@H](n2cnc3c(=O)[nH]c(N)nc32)O[C@@H]1COP(=O)(O)OP(=O)(O)O` [MANT-GDP], the Kd in experiment [2] is 8 µM.
